Assay results from patent US9181222B2, “Protein kinase C inhibitors and uses thereof” (Rigel Pharmaceuticals, Inc., priority 2010, dated 2015).

System: Human primary T cells
Test: IL-2 ELISA, Human Primary T Cell, Anti-CD3+CD28+ (Whole Cell Assay)
Format: cell-based
Settings: IL-2 by ELISA, human primary T cells pre-incubated with compound 1 hr, stimulated with αCD3 and αCD28, 24 hours
Description: IL-2 ELISA, Human Primary T Cell, Anti-CD3+CD28+ (Whole Cell Assay)
Human primary T cell isolation and culture: Human primary T cells were prepared as follows. Whole blood was obtained from a healthy volunteer, mixed 1:1 with PBS, layered on to Ficoll Hypaque (Amersham Pharmacia Biotech, Piscataway, N.J., Catalog #17-1440-03) in 2:1 blood/PBS:ficoll ratio and centrifuged for 30 min at 4° C. at 1750 rpm. The cells at the serum: ficoll interface were recovered and washed twice with 5 volumes of PBS. These freshly isolated human peripheral blood mononuclear cells were cultured in Yssel's medium containing 40 U/mL IL2 in a flask pre-coated with 1 μg/mL αCD3 and 5 μg/mL αCD28 (Anti-Human CD3, BD Pharmingen Catalog #555336, Anti-Human CD28, Beckman Coulter Catalog #1M1376). The cells were stimulated for 3-4 days, then transferred to a fresh flask and maintained in RPMI (RPMI-1640 with L-Glutamine; Mediatech, Inc., Herndon Va., cat. #10-040-CM) with 10% FBS and 40 U/mL IL-2. The primary T-cells were then washed twice with PBS to remove the IL-2.
Primary T cell stimulation and IL2 ELISA: Human primary T cells (100,000 cells per well) were pre-incubated with or without test compound in Yssel's medium for 1 hr at 37° C. Cells were then stimulated by transferring them to round-bottom 96-well plates pre-coated with 1 μg/ml αCD3 and 5 μg/ml αCD28. For counter assay, cells were instead stimulated by adding 8× stock solutions of PMA and ionomycin in Yssels (for final concentrations of 0.5 ng/ml PMA and 0.1 μM ionomycin, both from Calbiochem). Cells were incubated at 37° C. for 24 hours before 100 μL supernatants were harvested for quantification of IL-2 by ELISA using Human IL-2 Duoset ELISA Kit from R and D Systems, Cat. # DY202E.

| IC50 | SMILES |
| --- | --- |
| < 250 nM | CC1(C)CC(Nc2nc(Nc3cc(-n4cnnn4)c(C4CC4)cc3F)ncc2C#N)CC(C)(C)N1 [Compound I-2, 2-(4-Cyclopropyl-2-fluoro-5-tetrazol-1-yl-phenylamino)-4-(2,2,6,6-tetramethyl-piperidin-4-ylamino)-pyrimidine-5-carbonitrile] |
| 500 to 1000 nM | CC1(C)CC(Nc2nc(Nc3cc(-n4cnnn4)c(C4CC4)cc3F)ncc2C(N)=O)CC(C)(C)N1 [Compound I-3, 2-(4-Cyclopropyl-2-fluoro-5-tetrazol-1-yl-phenylamino)-4-(2,2,6,6-tetramethyl-piperidin-4-ylamino)-pyrimidine-5-carboxylic acid amide] |
| < 250 nM | CC1(C)CC(Nc2nc(Nc3cc(F)c(C4CC4)c(-n4cnnn4)c3)ncc2C#N)CC(C)(C)N1 [Compound I-4, 2-(4-Cyclopropyl-3-fluoro-5-tetrazol-1-yl-phenylamino)-4-(2,2,6,6-tetramethyl-piperidin-4-ylamino)-pyrimidine-5-carbonitrile] |
| < 250 nM | CC1(C)CC(Nc2nc(Nc3cc(F)c(C4CC4)c(-n4cnnn4)c3)ncc2F)CC(C)(C)N1 [Compound I-5, N2-(4-Cyclopropyl-3-fluoro-5-tetrazol-1-yl-phenyl)-5-fluoro-N4-(2,2,6,6-tetramethyl-piperidin-4-yl)-pyrimidine-2,4-diamine] |
| < 250 nM | CC1(C)CC(Nc2nc(Nc3cc(C4CC4)c(F)c(-n4cnnn4)c3)ncc2C#N)CC(C)(C)N1 [Compound I-6, 2-(3-Cyclopropyl-4-fluoro-5-tetrazol-1-yl-phenylamino)-4-(2,2,6,6-tetramethyl-piperidin-4-ylamino)-pyrimidine-5-carbonitrile] |
| < 250 nM | CC1(C)CC(Nc2nc(Nc3cc(C4CC4)c(F)c(-n4cnnn4)c3)ncc2F)CC(C)(C)N1 [Compound I-7, N2-(3-Cyclopropyl-4-fluoro-5-tetrazol-1-yl-phenyl)-5-fluoro-N4-(2,2,6,6-tetramethyl-piperidin-4-yl)-pyrimidine-2,4-diamine] |
| < 250 nM | CC(C)c1cc(F)c(Nc2ncc(C#N)c(NC3CC(C)(C)NC(C)(C)C3)n2)cc1-n1cnnn1 [Compound I-8, 2-(2-Fluoro-4-isopropyl-5-tetrazol-1-yl-phenylamino)-4-(2,2,6,6-tetramethyl-piperidin-4-ylamino)-pyrimidine-5-carbonitrile] |
| < 250 nM | CC(C)c1ccc(Nc2ncc(F)c(NC3CC(C)(C)NC(C)(C)C3)n2)cc1-n1cnnn1 [Compound I-9, 5-Fluoro-N2-(4-isopropyl-3-tetrazol-1-yl-phenyl)-N4-(2,2,6,6-tetramethyl-piperidin-4-yl)-pyrimidine-2,4-diamine] |
| 250 to 500 nM | CC(C)c1ccc(Nc2ncc(C(N)=O)c(NC3CC(C)(C)NC(C)(C)C3)n2)cc1-n1cnnn1 [Compound I-10, 2-(4-Isopropyl-3-tetrazol-1-yl-phenylamino)-4-(2,2,6,6-tetramethyl-piperidin-4-ylamino)-pyrimidine-5-carboxylic acid amide] |
| < 250 nM | CC(C)c1ccc(Nc2ncc(C#N)c(NC3CC(C)(C)NC(C)(C)C3)n2)cc1-n1cnnn1 [Compound I-11, 2-(4-Isopropyl-3-tetrazol-1-yl-phenylamino)-4-(2,2,6,6-tetramethyl-piperidin-4-ylamino)-pyrimidine-5-carbonitrile] |
| < 250 nM | CC1(C)CC(Nc2nc(Nc3cc(-n4cnnn4)c(C4CC4)cc3F)ncc2F)CC(C)(C)N1 [Compound I-12, N2-(4-Cyclopropyl-2-fluoro-5-tetrazol-1-yl-phenyl)-5-fluoro-N4-(2,2,6,6-tetramethyl-piperidin-4-yl)-pyrimidine-2,4-diamine] |
| < 250 nM | CC1(C)CC(Nc2nc(Nc3cc(-n4cnnn4)ccc3F)ncc2F)CC(C)(C)N1 [Compound I-13, 5-Fluoro-N2-(2-fluoro-5-tetrazol-1-yl-phenyl)-N4-(2,2,6,6-tetramethyl-piperidin-4-yl)-pyrimidine-2,4-diamine] |
| < 250 nM | CN1C(C)(C)CC(Nc2nc(Nc3cc(-n4cnnn4)ccc3F)ncc2F)CC1(C)C [Compound I-14, 5-Fluoro-N2-(2-fluoro-5-tetrazol-1-yl-phenyl)-N4-(1,2,2,6,6-pentamethyl-piperidin-4-yl)-pyrimidine-2,4-diamine] |
| < 250 nM | CC1(C)CC(Nc2nc(Nc3ccc(C4CC4)c(-n4nnnc4C(F)(F)F)c3)ncc2F)CC(C)(C)N1 [Compound I-15, N2-[4-Cyclopropyl-3-(5-trifluoromethyl-tetrazol-1-yl)-phenyl]-5-fluoro-N4-(2,2,6,6-tetramethyl-piperidin-4-yl)-pyrimidine-2,4-diamine] |
| < 250 nM | CC(C)c1nnnn1-c1cc(Nc2ncc(F)c(NC3CC(C)(C)NC(C)(C)C3)n2)c(F)cc1C1CC1 [Compound I-16, N2-(4-cyclopropyl-2-fluoro-5-(5-isopropyl-1H-tetrazol-1-yl)phenyl)-5-fluoro-N4-(2,2,6,6-tetramethylpiperidin-4-yl)pyrimidine-2,4-diamine] |
| < 250 nM | CC1(C)CC(Nc2nc(Nc3cc(-n4nnnc4C4CC4)c(C4CC4)cc3F)ncc2F)CC(C)(C)N1 [Compound I-17, N2-(4-cyclopropyl-5-(5-cyclopropyl-1H-tetrazol-1-yl)-2-fluorophenyl)-5-fluoro-N4-(2,2,6,6-tetramethylpiperidin-4-yl)pyrimidine-2,4-diamine] |
| < 250 nM | Cc1nnnn1-c1cc(Nc2ncc(F)c(NC3CC(C)(C)NC(C)(C)C3)n2)c(F)cc1C1CC1 [Compound I-18, N2-(4-cyclopropyl-2-fluoro-5-(5-methyl-1H-tetrazol-1-yl)phenyl)-5-fluoro-N4-(2,2,6,6-tetramethylpiperidin-4-yl)pyrimidine-2,4-diamine] |
| < 250 nM | CC1(C)CC(Nc2nc(Nc3cc(-n4nnnc4C(F)(F)F)c(C4CC4)cc3F)ncc2F)CC(C)(C)N1 [Compound I-19, N2-(4-cyclopropyl-2-fluoro-5-(5-(trifluoromethyl)-1H-tetrazol-1-yl)phenyl)-5-fluoro-N4-(2,2,6,6-tetramethylpiperidin-4-yl)pyrimidine-2,4-diamine] |
| < 250 nM | CC1(C)CC(Nc2nc(Nc3cc(-n4nnnc4CF)c(C4CC4)cc3F)ncc2F)CC(C)(C)N1 [Compound I-20, N2-(4-cyclopropyl-2-fluoro-5-(5-(fluoromethyl)-1H-tetrazol-1-yl)phenyl)-5-fluoro-N4-(2,2,6,6-tetramethylpiperidin-4-yl)pyrimidine-2,4-diamine] |
